Source: PMC12799524, “Putative new biomarkers for renal transporter-mediated drug-drug interactions: Characterization as substrates of organic cation transporter 2, multidrug and toxin extrusion protein 1, and other important drug transporters” (Drug Metabolism and Disposition, 2025)
One block for each molecule: values may come before it.

Assays:
MATE1 = biological target: T1, MATE1 (Homo sapiens, UniProt Q96FL8); test: Uptake assay in HEK-MATE1 vs HEK-VC cells (pH 8.0); conditions: 0 minutes and 5 minutes without added substance
T1 sequence (Q96FL8 1-570): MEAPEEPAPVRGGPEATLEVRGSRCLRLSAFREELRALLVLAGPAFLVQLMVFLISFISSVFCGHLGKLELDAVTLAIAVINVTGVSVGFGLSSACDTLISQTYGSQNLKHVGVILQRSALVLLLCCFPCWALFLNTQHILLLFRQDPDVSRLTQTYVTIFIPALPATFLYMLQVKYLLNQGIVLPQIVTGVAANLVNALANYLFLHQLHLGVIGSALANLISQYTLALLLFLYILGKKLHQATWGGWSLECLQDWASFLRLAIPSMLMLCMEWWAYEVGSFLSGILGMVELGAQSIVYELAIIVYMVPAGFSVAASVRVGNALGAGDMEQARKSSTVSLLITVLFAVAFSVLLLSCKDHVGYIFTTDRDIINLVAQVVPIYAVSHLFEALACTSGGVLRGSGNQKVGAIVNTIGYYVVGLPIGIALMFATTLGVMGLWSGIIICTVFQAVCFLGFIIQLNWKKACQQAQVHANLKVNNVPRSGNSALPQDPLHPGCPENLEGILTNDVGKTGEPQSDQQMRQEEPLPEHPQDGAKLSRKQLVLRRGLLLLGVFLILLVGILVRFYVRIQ
Description: (§1) Transport experiments were performed 48 hours after seeding.
(§2) The intracellular background of all 5 compounds in HEK cells at the beginning of the uptake experiments was investigated 48 hours after seeding without incubation with transport buffer (ie, 0 minutes). […] Then, cells were lysed with ice-cold 80% MeOH containing the aforementioned recovery standards. In addition, the impact of a 5-minute incubation period with transport buffer without added substance was investigated.

human OCT2 = biological target: T2, human OCT2 (Homo sapiens, UniProt O15244); test: Uptake assay in HEK-OCT2 vs HEK-VC cells; assay type: in vitro ADME; parameters: expressed in transfected cells; host or cells: HEK293 (HEK-OCT2)
T2 sequence (O15244 1-555): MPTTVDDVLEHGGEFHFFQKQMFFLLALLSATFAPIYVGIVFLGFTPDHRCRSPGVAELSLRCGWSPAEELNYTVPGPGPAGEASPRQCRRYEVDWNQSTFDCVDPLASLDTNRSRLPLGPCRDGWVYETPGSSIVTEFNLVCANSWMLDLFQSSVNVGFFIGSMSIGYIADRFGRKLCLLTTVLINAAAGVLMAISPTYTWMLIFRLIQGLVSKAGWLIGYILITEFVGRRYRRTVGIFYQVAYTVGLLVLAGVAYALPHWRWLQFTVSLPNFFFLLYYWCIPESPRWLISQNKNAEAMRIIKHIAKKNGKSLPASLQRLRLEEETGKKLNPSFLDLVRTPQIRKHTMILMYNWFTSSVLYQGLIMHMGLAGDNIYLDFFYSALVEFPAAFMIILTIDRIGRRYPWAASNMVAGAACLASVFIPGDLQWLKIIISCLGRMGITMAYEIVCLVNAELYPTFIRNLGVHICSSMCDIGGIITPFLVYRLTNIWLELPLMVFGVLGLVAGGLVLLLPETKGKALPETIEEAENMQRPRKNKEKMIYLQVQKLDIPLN
Description: as §1, §2

[1] = substrate: NCCc1c[nH]c2ccc(O)cc12

Intracellular background in HEK-MATE1 cells compared to HEK-VC cells (MATE1): significantly lower
Intracellular background in HEK-OCT2 cells compared to HEK-VC cells (human OCT2; 0 minutes, without added substance): significantly higher
Intracellular background in HEK-OCT2 cells compared to HEK-VC cells (human OCT2; 5 minutes in transport buffer without added substance): reduced to the amount in HEK-VC cells
Molecule: N=C(N)NCCCC(=O)O [4-Guanidinobutanoic acid, 4-guanidinobutanoic acid]

B1: human OCT2 (Homo sapiens) (protein)
chain: T2 sequence (O15244 1-555)
Km [1]: 412.0 ± 143.6 µM
